In one data set the test system is HF, PPC-1, and CaKi-1 cells. The experiment in a line: MTT cell viability screen at 100 μM (cell line not given). It counts as cell-based, human. To be noted: 72 h, cell line not stated. On the procedure: The effect of synthesized compounds on cell viability was studied using 3-(4,5-dimethylthiazol-2-yl)-2,5-diphenyltetrazolium bromide (MTT; Sigma-Aldrich Co., St Louis, MO, USA) assay, as described elsewhere. Briefly, HF, PPC-1, and CaKi-1 cells were seeded in 96-well plates (Corning) in triplicates at a volume of 100 μL at a concentration of 4 × 10^3 cells/well. After 24 h of incubation, the cells were treated with 100 μM of tested compounds. After 72 h, the MTT reagent (at 0.5 mg/mL concentration) has been added to the wells, and cells were incubated for 4 h. Then the medium was aspirated, and the formed purple crystals were dissolved in 100 μL DMSO (Sigma-Aldrich Co.). The absorbance was measured at 570 and 630 nm using a multi-detection microplate reader. The compound effect on cell viability was calculated using a formula (1): Relativecellviability%=A−A0/ANC−A0 (1) Where: […]
Take `Cc1cc(NS(=O)(=O)c2ccc(NCCC(=O)NN=Cc3ccccc3Cl)cc2)no1` [Compound 15e, 4-((3-(2-(2-Chlorobenzylidene)hydrazineyl)-3-oxopropyl)amino)-N-(5-methylisoxazol-3-yl)benzene-sulfonamide]: the “reduced cell viability up to about” value is on record as “about 40%”.
Consider `Cc1cc(NS(=O)(=O)c2ccc(NCCC(=O)NN=Cc3ccc([N+](=O)[O-])s3)cc2)no1` [Compound 16d, N-(5-methylisoxazol-3-yl)-4-((3-(2-((5-nitrothiophen-2-yl)methylene)hydrazineyl)-3-oxopropyl)amino)-benzenesulfonamide], for which the “reduced cell viability up to about” value is “about 40%”.

Test system in the next data set: not given
Test: not given
Details: not given
Broadly, the melting point is the temperature of the solid-liquid transition. Molecule `Cc1cc(NS(=O)(=O)c2ccc(NCCC(=O)O)cc2)no1` [Compound 2, 3-((4-(N-(5-methylisoxazol-3-yl)sulfamoyl)phenyl)amino)propanoic acid] gave a melting point of 188 to 189 °C.
Consider `COC(=O)CCNc1ccc(S(=O)(=O)Nc2cc(C)on2)cc1` [Compound 3, Methyl 3-((4-(N-(5-methylisoxazol-3-yl)sulfamoyl)phenyl)amino)propanoate], for which the melting point was in the range of 148 to 149 °C.
With `Cc1cc(NS(=O)(=O)c2ccc(N3CCC(=O)NC3=S)cc2)no1` [Compound 6, N-(5-methylisoxazol-3-yl)-4-(4-oxo-2-thioxotetrahydropyrimidin-1(2H)-yl)benzenesulfonamide], the melting point is 240 to 241 °C.
Molecule `Cc1cc(NS(=O)(=O)c2ccc(N(CCC(=O)O)C(N)=S)cc2)no1` [Compound 6a, 3-(1-(4-(N-(5-methylisoxazol-3-yl)sulfamoyl)phenyl)thioureido)propanoic acid] registered a melting point of 182 to 183 °C.
`Cc1cc(NS(=O)(=O)c2ccc(NC=CC(=O)Nc3ccc(S(N)(=O)=O)cc3)cc2)no1` [Compound 7, 3-((4-(N-(5-methylisoxazol-3-yl)sulfamoyl)phenyl)amino)-N-(4-sulfamoylphenyl)propenamide] had a melting point of 213 to 214 °C.
Same read-out and setting: the figure for `Cc1cc(NS(=O)(=O)c2ccc(NC=CC(=O)Nn3c(C)ccc3C)cc2)no1` [Compound 8, N-(2,5-dimethyl-1H-pyrrol-1-yl)-3-((4-(N-(5-methylisoxazol-3-yl)sulfamoyl)phenyl)amino)propenamide] is 118 to 119 °C.
`Cc1cc(C)n(C(=O)CCNc2ccc(S(=O)(=O)Nc3cc(C)on3)cc2)n1` [Compound 9, 4-((3-(3,5-Dimethyl-1H-pyrazol-1-yl)-3-oxopropyl)amino)-N-(5-methylisoxazol-3-yl)benzenesulfonamide] registered a melting point of 144 to 145 °C.
In turn, `Cc1cc(NS(=O)(=O)c2ccc(NCCC(=O)NNC(=O)Nc3ccccc3)cc2)no1` [Compound 10, 2-(3-((4-(N-(5-methylisoxazol-3-yl)sulfamoyl)phenyl)amino)propanoyl)-N-phenylhydrazine-1-carboxamide] yielded a melting point of 204 to 205 °C.
Molecule `Cc1cc(NS(=O)(=O)c2ccc(NCCC(=O)NNC(=S)Nc3ccccc3)cc2)no1` [Compound 11, 2-(3-((4-(N-(5-methylisoxazol-3-yl)sulfamoyl)phenyl)amino)propanoyl)-N-phenylhydrazine-1-carbothioamide] yielded a melting point of 183 to 184 °C.
As for `Cc1cc(NS(=O)(=O)c2ccc(NCCc3n[nH]c(=O)n3-c3ccccc3)cc2)no1` [Compound 12, N-(5-methylisoxazol-3-yl)-4-((2-(5-oxo-4-phenyl-4,5-dihydro-1H-1,2,4-triazol-3-yl)ethyl)amino)-benzenesulfonamide], the melting point was 188 to 189 °C.
As for `Cc1cc(NS(=O)(=O)c2ccc(NCCc3n[nH]c(=S)n3-c3ccccc3)cc2)no1` [Compound 13, N-(5-methylisoxazol-3-yl)-4-((2-(4-phenyl-5-thioxo-4,5-dihydro-1H-1,2,4-triazol-3-yl)ethyl)amino)-benzenesulfonamide], the melting point lay in the range of 222 to 223 °C.
With `Cc1cc(NS(=O)(=O)c2ccc(NCCC(=O)NN=C3C(=O)Nc4ccccc43)cc2)no1` [Compound 14, N-(5-methylisoxazol-3-yl)-4-((3-oxo-3-(2-(2-oxoindolin-3-ylidene)hydrazineyl)propyl)amino)-benzenesulfonamide], the melting point lay within 209 to 210 °C.
With `Cc1cc(NS(=O)(=O)c2ccc(NCCC(=O)NN=Cc3ccccc3)cc2)no1` [Compound 15a, 4-((3-(2-Benzylidenehydrazineyl)-3-oxopropyl)amino)-N-(5-methylisoxazol-3-yl)benzenesulfonamide], the melting point lay within 199 to 200 °C.
In turn, `Cc1cc(NS(=O)(=O)c2ccc(NCCC(=O)NN=Cc3ccccc3O)cc2)no1` [Compound 15b, 4-((3-(2-(2-Hydroxybenzylidene)hydrazineyl)-3-oxopropyl)amino)-N-(5-methylisoxazol-3-yl)benzene-sulfonamide] displayed a melting point of 193 to 194 °C.
Take `Cc1cc(NS(=O)(=O)c2ccc(NCCC(=O)NN=Cc3ccc(O)cc3)cc2)no1` [Compound 15c, 4-((3-(2-(4-Hydroxybenzylidene)hydrazineyl)-3-oxopropyl)amino)-N-(5-methylisoxazol-3-yl)benzene-sulfonamide]: the melting point lay in the range of 218 to 219 °C.
For `Cc1cc(NS(=O)(=O)c2ccc(NCCC(=O)NN=Cc3ccc(F)cc3)cc2)no1` [Compound 15d, 4-((3-(2-(4-Fluorobenzylidene)hydrazineyl)-3-oxopropyl)amino)-N-(5-methylisoxazol-3-yl)benzene-sulfonamide], the melting point is 213 to 214 °C.
Still for that read-out and setting: the figure for `Cc1cc(NS(=O)(=O)c2ccc(NCCC(=O)NN=Cc3ccccc3Cl)cc2)no1` [Compound 15e, 4-((3-(2-(2-Chlorobenzylidene)hydrazineyl)-3-oxopropyl)amino)-N-(5-methylisoxazol-3-yl)benzene-sulfonamide] is 202 to 203 °C; for `Cc1cc(NS(=O)(=O)c2ccc(NCCC(=O)NN=Cc3ccc(Cl)cc3)cc2)no1` [Compound 15f, 4-((3-(2-(4-Chlorobenzylidene)hydrazineyl)-3-oxopropyl)amino)-N-(5-methylisoxazol-3-yl)benzene-sulfonamide] it is 210 to 211 °C.
On the same count and under the same terms, the figure for `COc1ccc(C=NNC(=O)CCNc2ccc(S(=O)(=O)Nc3cc(C)on3)cc2)cc1` [Compound 15g, 4-((3-(2-(4-Methoxybenzylidene)hydrazineyl)-3-oxopropyl)amino)-N-(5-methylisoxazol-3-yl)benzene-sulfonamide] is 206 to 207 °C; for `Cc1cc(NS(=O)(=O)c2ccc(NCCC(=O)NN=Cc3cccc([N+](=O)[O-])c3)cc2)no1` [Compound 15h, 4-((3-(2-(3-Nitrobenzylidene)hydrazineyl)-3-oxopropyl)amino)-N-(5-methylisoxazol-3-yl)benzene-sulfonamide] it is 208 to 209 °C; for `Cc1cc(NS(=O)(=O)c2ccc(NCCC(=O)NN=Cc3cc([N+](=O)[O-])ccc3Cl)cc2)no1` [Compound 15i, 4-((3-(2-(2-Chloro-5-nitrobenzylidene)hydrazineyl)-3-oxopropyl)amino)-N-(5-methylisoxazol-3-yl)benzenesulfonamide] it is 210 to 211 °C.
Turning to `Cc1cc(NS(=O)(=O)c2ccc(NCCC(=O)NN=Cc3ccc([N+](=O)[O-])cc3)cc2)no1` [Compound 15j, 4-((3-(2-(4-Nitrobenzylidene)hydrazineyl)-3-oxopropyl)amino)-N-(5-methylisoxazol-3-yl)benzene-sulfonamide], the melting point was in the range of 214 to 215 °C.
Same read-out and setting: in the case of `Cc1cc(NS(=O)(=O)c2ccc(NCCC(=O)NN=Cc3ccco3)cc2)no1` [Compound 16a, 4-((3-(2-(Furan-2-ylmethylene)hydrazineyl)-3-oxopropyl)amino)-N-(5-methylisoxazol-3-yl)benzene-sulfonamide] it was 185 to 186 °C; in that of `Cc1cc(NS(=O)(=O)c2ccc(NCCC(=O)NN=Cc3cccs3)cc2)no1` [Compound 16c, N-(5-methylisoxazol-3-yl)-4-((3-oxo-3-(2-(thiophen-2-ylmethylene)hydrazineyl)propyl)amino)-benzenesulfonamide], 215 to 216 °C.
Still for that read-out and setting: in the case of `Cc1cc(NS(=O)(=O)c2ccc(NCCC(=O)NN=Cc3ccc([N+](=O)[O-])s3)cc2)no1` [Compound 16d, N-(5-methylisoxazol-3-yl)-4-((3-(2-((5-nitrothiophen-2-yl)methylene)hydrazineyl)-3-oxopropyl)amino)-benzenesulfonamide] it was 195 to 196 °C.

Values taken from article PMC10035904, “Synthesis of novel sulphamethoxazole derivatives and exploration of their anticancer and antimicrobial properties” (PLOS ONE, 2023).
